One test addresses T1, human TLR7 (Homo sapiens, UniProt Q9NYK1).
T1 construct: host or cells: HEK293 (HEK-Blue hTLR7)
T1 sequence (Q9NYK1 27-1049): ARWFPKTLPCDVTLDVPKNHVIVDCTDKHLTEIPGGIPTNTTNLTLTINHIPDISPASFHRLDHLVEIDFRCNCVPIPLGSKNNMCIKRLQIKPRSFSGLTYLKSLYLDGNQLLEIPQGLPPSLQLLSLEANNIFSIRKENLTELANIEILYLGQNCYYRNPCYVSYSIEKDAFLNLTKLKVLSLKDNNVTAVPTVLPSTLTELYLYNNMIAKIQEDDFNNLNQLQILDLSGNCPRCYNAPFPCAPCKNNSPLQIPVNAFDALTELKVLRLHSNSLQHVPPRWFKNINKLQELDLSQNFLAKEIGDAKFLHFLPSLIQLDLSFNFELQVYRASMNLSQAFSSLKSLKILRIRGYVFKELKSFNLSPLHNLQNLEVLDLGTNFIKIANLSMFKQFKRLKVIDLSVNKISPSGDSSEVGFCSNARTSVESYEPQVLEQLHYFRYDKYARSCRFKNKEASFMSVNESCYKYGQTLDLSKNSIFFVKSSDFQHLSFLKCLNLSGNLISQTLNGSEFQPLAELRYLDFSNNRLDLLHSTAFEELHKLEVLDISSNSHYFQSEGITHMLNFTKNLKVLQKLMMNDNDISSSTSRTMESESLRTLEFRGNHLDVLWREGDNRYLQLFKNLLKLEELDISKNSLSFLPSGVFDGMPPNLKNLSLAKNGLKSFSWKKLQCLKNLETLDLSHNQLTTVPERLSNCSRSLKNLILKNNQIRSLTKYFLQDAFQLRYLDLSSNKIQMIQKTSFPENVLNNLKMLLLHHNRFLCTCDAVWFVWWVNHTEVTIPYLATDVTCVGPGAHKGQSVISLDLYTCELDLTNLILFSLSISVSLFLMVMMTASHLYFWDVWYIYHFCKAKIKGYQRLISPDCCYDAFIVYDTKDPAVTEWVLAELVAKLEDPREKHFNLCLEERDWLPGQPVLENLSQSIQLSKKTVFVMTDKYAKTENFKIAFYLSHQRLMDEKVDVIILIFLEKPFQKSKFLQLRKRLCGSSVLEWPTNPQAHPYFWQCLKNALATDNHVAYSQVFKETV
Nature of the test: HEK-Blue hTLR7 reporter cell assay (SEAP, NF-kB/AP-1) for stimulation of human TLR7. The format is cell-based. The note with it: HEK-Blue hTLR7 cells; for EC50: 24 h incubation, SEAP readout, read-out: TLR7_EC50; for activation at 20 µM: 24 h, at 20000 nM. In a few lines:
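HEK293 cells expressing hTLR7 with NF-κB/AP-1-driven SEAP reporter, seeded 3.10E4 cells/well, pre-incubated 18–24 h, then exposed to 3-fold compound dilutions (0.01–20 μM) for 24 h at 37 °C. Supernatant SEAP read with QUANTI-Blue; EC50 as concentration giving 50% activation.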

The target of the next test is T2, human TLR8 (Homo sapiens, UniProt Q9NR97).
T2 construct: host or cells: HEK293 (HEK-Blue hTLR8)
T2 sequence (Q9NR97 27-1041): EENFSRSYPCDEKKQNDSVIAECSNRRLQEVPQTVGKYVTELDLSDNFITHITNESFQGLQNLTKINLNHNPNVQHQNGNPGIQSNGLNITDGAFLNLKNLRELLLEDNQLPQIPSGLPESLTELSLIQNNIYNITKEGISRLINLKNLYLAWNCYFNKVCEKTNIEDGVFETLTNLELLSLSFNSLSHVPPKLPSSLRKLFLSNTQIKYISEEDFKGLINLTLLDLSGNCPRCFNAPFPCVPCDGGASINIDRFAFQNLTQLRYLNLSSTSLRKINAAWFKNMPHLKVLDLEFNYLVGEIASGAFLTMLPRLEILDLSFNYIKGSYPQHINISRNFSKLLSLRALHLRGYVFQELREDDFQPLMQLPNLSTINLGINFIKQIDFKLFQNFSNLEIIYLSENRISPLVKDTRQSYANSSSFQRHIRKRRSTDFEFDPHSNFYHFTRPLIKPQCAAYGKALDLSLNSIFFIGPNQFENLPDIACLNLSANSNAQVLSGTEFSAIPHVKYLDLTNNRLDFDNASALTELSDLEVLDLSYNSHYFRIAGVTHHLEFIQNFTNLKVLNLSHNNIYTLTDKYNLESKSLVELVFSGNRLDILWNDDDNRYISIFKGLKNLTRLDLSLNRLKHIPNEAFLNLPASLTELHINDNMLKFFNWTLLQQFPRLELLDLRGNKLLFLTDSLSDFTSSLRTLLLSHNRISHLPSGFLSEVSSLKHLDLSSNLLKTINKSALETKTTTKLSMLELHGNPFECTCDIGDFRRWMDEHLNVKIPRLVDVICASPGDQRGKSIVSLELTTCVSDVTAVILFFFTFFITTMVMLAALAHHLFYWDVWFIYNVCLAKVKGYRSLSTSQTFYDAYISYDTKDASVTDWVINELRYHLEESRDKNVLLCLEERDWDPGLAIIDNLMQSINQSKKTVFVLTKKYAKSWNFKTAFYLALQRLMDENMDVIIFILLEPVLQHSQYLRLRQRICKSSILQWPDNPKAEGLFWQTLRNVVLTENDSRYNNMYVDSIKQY
Put plainly: HEK-Blue hTLR8 reporter cell assay (SEAP, NF-kB/AP-1) for stimulation of human TLR8. It counts as cell-based. The note with it: HEK-Blue hTLR8 cells; for activation at 20 µM: 24 h, at 20000 nM; for EC50: 24 h incubation, SEAP readout, read-out: TLR8_EC50. In a few lines: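 HEK293 cells carrying hTLR8 and a SEAP reporter driven by NF-κB/AP-1 sites were seeded at 3.10E4 cells/well and held 18 to 24 h at 37° C., 5% CO2 before compound addition. Supernatant SEAP measured with QUANTI-Blue™.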

Where a name gives a salt, the structure may show the parent alone. Bounds are passed on as bounds.

Our source for the EC50 and activation values is patent publication US12583861B2, “Derivatives of imidazo[4,5-d]pyridazine, their preparation and their therapeutic application” (SANOFI, priority 2021, dated 2026).

`CCCCc1nc2c(N)nnc(-c3ccccc3)c2n1Cc1ccc(OC)cc1` [Compound 92, 2-butyl-1-(4-methoxybenzyl)-7-phenyl-1H-imidazo[4,5-d]pyridazin-4-amine]: the EC50 at human TLR7 worked out at 7970 nM. For the same compound, the activation at 20 µM on human TLR8 came out at 15%.

For the compound `CCCCc1nc2c(N)nnc(O)c2n1Cc1ccc(OC)cc1` [Compound 93, 4-amino-2-butyl-1-(4-methoxybenzyl)-1H-imidazo[4,5-d]pyridazin-7-ol], the EC50 on human TLR7 was over 20000 nM. Also, the activation at 20 µM at human TLR8 is 17%.

Regarding `CCCCc1nc2c(N)nnc(NCCCc3ccco3)c2n1Cc1ccc(OC)cc1` [Compound 94, 2-butyl-N7-(3-(furan-2-yl)propyl)-1-(4-methoxybenzyl)-1H-imidazo[4,5-d]pyridazine-4,7-diamine], the EC50 on human TLR7 came to 226 nM. The activation at 20 µM at human TLR8 is 11%.

With `CCCCc1nc2c(N)nncc2n1Cc1ccc(OC)cc1` [Compound 95, 2-butyl-1-(4-methoxybenzyl)-1H-imidazo[4,5-d]pyridazin-4-amine], the values for the activation at 20 µM on human TLR7 and on human TLR8 were 15% and 20.5%, respectively.

With `CCCCc1nc2c(N)nnc(-c3cc[nH]n3)c2n1Cc1ccc(OC)cc1` [Compound 96, 2-butyl-1-(4-methoxybenzyl)-7-(1H-pyrazol-3-yl)-1H-imidazo[4,5-d]pyridazin-4-amine], the EC50 at human TLR7 was over 20000 nM. Moreover, the activation at 20 µM at human TLR8 came to 22.7%.

The compound `CCCCc1nc2c(N)nnc(-c3cnn(C)c3)c2n1Cc1ccc(OC)cc1` [Compound 97, 2-butyl-1-(4-methoxybenzyl)-7-(1-methyl-1H-pyrazol-4-yl)-1H-imidazo[4,5-d]pyridazin-4-amine] registered an activation at 20 µM on human TLR7 of 13%. The EC50 at human TLR8 is over 20000 nM.

On to `CCCCc1nc2c(N)nnc(NC(C)C)c2[nH]1` [Compound 98, 2-butyl-N7-isopropyl-1H-imidazo[4,5-d]pyridazine-4,7-diamine], for which the activation at 20 µM on human TLR7 is 8%; on human TLR8, 6%.

Take `CCCCc1nc2c(N)nnc(SC(C)C)c2[nH]1` [Compound 99, 2-butyl-7-(isopropylthio)-1H-imidazo[4,5-d]pyridazin-4-amine]: at human TLR7, the EC50 came out at 13600 nM. On human TLR8, this compound came in with an activation at 20 µM of 18%.

Consider `CCCCc1nc2c(N)nnc(OC(C)C)c2n1Cc1ccc(CN[C@H]2C[C@H](O)C2)cc1` [Compound 100, (1R,3R)-3-((4-((4-amino-2-butyl-7-isopropoxy-1H-imidazo[4,5-d]pyridazin-1-yl)methyl)benzyl)amino)cyclobutan-1-ol dihydrochloride salt], for which the EC50 at human TLR7 was 36 nM; on human TLR8 it was 2170 nM.

For the compound `CCCCc1nc2c(N)nnc(OC(C)C)c2n1Cc1ccc(CN2CCCC2)cc1` [Compound 101, 2-butyl-7-isopropoxy-1-(4-(pyrrolidin-1-ylmethyl)benzyl)-1H-imidazo[4,5-d]pyridazin-4-amine], the EC50 on human TLR7 came out at 13 nM; at human TLR8, 355 nM.

`CCCCc1nc2c(N)nnc(OC(C)C)c2n1Cc1ccc(CN2CCOCC2)cc1` [Compound 102, 2-butyl-7-isopropoxy-1-(4-(morpholinomethyl)benzyl)-1H-imidazo[4,5-d]pyridazin-4-amine]: the EC50 at human TLR7 was 71 nM; on human TLR8, 3830 nM.

In the case of `CCCCc1nc2c(N)nnc(OC(C)C)c2n1Cc1ccc(CNC(=O)CC)cc1` [Compound 103, N-(4-((4-amino-2-butyl-7-isopropoxy-1H-imidazo[4,5-d]pyridazin-1-yl)methyl)benzyl)propionamide], the results for the EC50 on human TLR7 and at human TLR8 were 55 nM and 15500 nM, respectively.

Consider `CCCCc1nc2c(N)nnc(OC(C)C)c2n1Cc1ccc(CNCCOC)cc1` [Compound 104, 2-butyl-7-isopropoxy-1-(4-(((2-methoxyethyl)amino)methyl)benzyl)-1H-imidazo[4,5-d]pyridazin-4-amine], for which the EC50 on human TLR7 is 22 nM; on human TLR8 it was 546 nM.

Turning to `CCCCc1nc2c(N)nnc(OC(C)C)c2n1Cc1ccc(CNCCOCCOCCOCCOCCOCCOC)cc1` [Compound 105, 2-butyl-4-isopropoxy-3-[[4-[[2-[2-[2-[2-[2-(2-methoxyethoxy)ethoxy]ethoxy]ethoxy]ethoxy]ethylamino]methyl]phenyl]methyl]imidazo[4,5-d]pyridazin-7-amine], the EC50 was 114 nM at human TLR7 and over 20000 nM at human TLR8.

`CCCCc1nc2c(N)nnc(OC(C)C)c2n1Cc1ccc(CNC(=O)CCOC)cc1` [Compound 107, N-(4-((4-amino-2-butyl-7-isopropoxy-1H-imidazo[4,5-d]pyridazin-1-yl)methyl)benzyl)-3-methoxypropanamide]: the EC50 is 205 nM at human TLR7 and over 20000 nM on human TLR8.

As for `CCCCc1nc2c(N)nnc(OC(C)C)c2n1Cc1ccc(CNCCOCCOC)cc1` [Compound 108, 2-butyl-7-isopropoxy-1-(4-(((2-(2-methoxyethoxy)ethyl)amino)methyl)benzyl)-1H-imidazo[4,5-d]pyridazin-4-amine], the EC50 came to 29 nM at human TLR7 and 1400 nM on human TLR8.

For the compound `CCCCCCNCc1ccc(Cn2c(CCCC)nc3c(N)nnc(OC(C)C)c32)cc1` [Compound 109, 2-butyl-1-(4-((hexylamino)methyl)benzyl)-7-isopropoxy-1H-imidazo[4,5-d]pyridazin-4-amine], the EC50 on human TLR7 was found to be 50 nM; at human TLR8, 243 nM.

For the compound `CCCCCCCCCCNCc1ccc(Cn2c(CCCC)nc3c(N)nnc(OC(C)C)c32)cc1` [Compound 110, 2-butyl-1-(4-((decylamino)methyl)benzyl)-7-isopropoxy-1H-imidazo[4,5-d]pyridazin-4-amine], the EC50 at human TLR7 was found to be 734 nM; on human TLR8, 2850 nM.

Regarding `CCCCc1nc2c(N)nnc(OC(C)C)c2n1Cc1ccc(CNC(=O)OCC)cc1` [Compound 111, ethyl (4-((4-amino-2-butyl-7-isopropoxy-1H-imidazo[4,5-d]pyridazin-1-yl)methyl)benzyl)carbamate], the EC50 on human TLR7 is 99 nM; at human TLR8, over 20000 nM.

As for `CCCCc1nc2c(N)nnc(OC(C)C)c2n1Cc1ccc(CNC(=O)OCc2ccc(OC)cc2)cc1` [Compound 112, 4-methoxybenzyl (4-((4-amino-2-butyl-7-isopropoxy-1H-imidazo[4,5-d]pyridazin-1-yl)methyl)benzyl)carbamate], the EC50 at human TLR7 is 248 nM; at human TLR8, over 20000 nM.
